Measurements taken from PubChem BioAssay AID256 (DTP/NCI, 2004).
Values joined by “and” are separate entries in the source; they are usually repeats but may differ in a detail not shown here. Equal values may be shown once. Toxic doses and inconclusive results are not listed. Rule for the calls: active = survival T/C of 150% or more; inactive = T/C below 125% in these data.

System: CD2F1 mice, L1210 leukemia ip, survival T/C
Assay: NCI In Vivo Anticancer Drug Screen. Data for tumor model L1210 Leukemia (intraperitoneal) in CD2F1 (CDF1) mice
Conditions: higher = longer survival
In short: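 Read-out first: treated-group measurement over vehicle-control measurement, expressed as a ratio. Animals bore a transplanted tumor line and were dosed with compound or vehicle.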

[1] = endpoint: mean survival time, dose: 100.0 mg/kg/injection, schedule: Q01DX009 (ip), vehicle: saline
[2] = endpoint: mean survival time, dose: 200.0 mg/kg/injection, schedule: Q01DX009 (ip), vehicle: saline
[3] = endpoint: mean survival time, dose: 400.0 mg/kg/injection, schedule: Q01DX009 (ip), vehicle: saline
[4] = endpoint: mean survival time, dose: 50.0 mg/kg/injection, schedule: Q01DX009 (ip), vehicle: Klucel (hydroxypropylcellulose) (HPC)
[5] = endpoint: mean survival time, dose: 100.0 mg/kg/injection, schedule: Q01DX009 (ip), vehicle: Klucel (hydroxypropylcellulose) (HPC)
[6] = endpoint: mean survival time, dose: 200.0 mg/kg/injection, schedule: Q01DX009 (ip), vehicle: Klucel (hydroxypropylcellulose) (HPC)
[7] = endpoint: median survival time, dose: 12.5 mg/kg/injection, schedule: Q01DX005 (ip), vehicle: saline with Tween-80
[8] = endpoint: median survival time, dose: 25.0 mg/kg/injection, schedule: Q01DX005 (ip), vehicle: saline with Tween-80
[9] = endpoint: median survival time, dose: 50.0 mg/kg/injection, schedule: Q01DX005 (ip), vehicle: saline with Tween-80
[10] = endpoint: median survival time, dose: 100.0 mg/kg/injection, schedule: Q01DX005 (ip), vehicle: saline with Tween-80
[11] = endpoint: median survival time, dose: 200.0 mg/kg/injection, schedule: Q01DX005 (ip), vehicle: saline with Tween-80
[12] = endpoint: mean survival time, dose: 100.0 mg/kg/injection, schedule: Q04DX003 (ip), vehicle: saline with Tween-80
[13] = endpoint: mean survival time, dose: 200.0 mg/kg/injection, schedule: Q04DX003 (ip), vehicle: saline with Tween-80
[14] = endpoint: mean survival time, dose: 12.5 mg/kg/injection, schedule: Q01DX009 (ip), vehicle: Klucel (hydroxypropylcellulose) (HPC)
[15] = endpoint: mean survival time, dose: 25.0 mg/kg/injection, schedule: Q01DX009 (ip), vehicle: Klucel (hydroxypropylcellulose) (HPC)
[16] = endpoint: mean survival time, dose: 25.0 mg/kg/injection, schedule: Q01DX009 (ip), vehicle: saline with Tween-80
[17] = endpoint: mean survival time, dose: 50.0 mg/kg/injection, schedule: Q01DX009 (ip), vehicle: saline with Tween-80

Measured: T/C

O=C(C[n+]1cc(Br)cc2ccccc21)c1ccc(O)c(O)c1
inactive: [1] 110 % of control | [2] 111 % of control | [3] 102 % of control

CCOC(=O)C1(C(=O)OCC)CCC(O)N1C(=O)c1cc2c(cc1[N+](=O)[O-])OCO2 (stereo unspecified)
inactive: [4] 97 % of control | [5] 101 % of control | [6] 101 % of control

BrC1CCCCCCC1Br (stereo unspecified)
inactive: endpoint: mean survival time, dose: 25.0 mg/kg/injection, schedule: Q01DX009 (ip), vehicle: saline 96 % of control | endpoint: mean survival time, dose: 50.0 mg/kg/injection, schedule: Q01DX009 (ip), vehicle: saline 94 % of control | [1] 93 % of control

CSc1nc(NC2OCC(O)C(O)C2O)c(Br)c(=O)[nH]1 (stereo unspecified)
inactive: [7] 101 % of control | [8] 101 % of control | [9] 101 % of control | [10] 101 % of control | [11] 101 % of control

O=C1NC(=O)C2=C1C1(Cl)C(Cl)=C(Cl)C2(Cl)C1(Cl)Cl
inactive: [12] 103 % of control | [13] 101 % of control | endpoint: mean survival time, dose: 400.0 mg/kg/injection, schedule: Q04DX003 (ip), vehicle: saline with Tween-80 103 % of control

CCOC(=O)Nc1cc(NC(c2ccccc2)c2ccccc2)c([N+](=O)[O-])c(Cl)n1
inactive: endpoint: mean survival time, dose: 100.0 mg/kg/injection, schedule: Q01DX001 (ip), vehicle: carboxymethylcellulose (CMC) 95 % of control | endpoint: mean survival time, dose: 200.0 mg/kg/injection, schedule: Q01DX001 (ip), vehicle: carboxymethylcellulose (CMC) 93 % of control | endpoint: mean survival time, dose: 400.0 mg/kg/injection, schedule: Q01DX001 (ip), vehicle: carboxymethylcellulose (CMC) 91 % of control

CCOC(=O)Nc1cc(NCCCCc2ccccc2)c2[nH]cnc2n1
inactive: endpoint: mean survival time, dose: 100.0 mg/kg/injection, schedule: Q01DX001 (ip), vehicle: Klucel (hydroxypropylcellulose) (HPC) 95 % of control | endpoint: mean survival time, dose: 200.0 mg/kg/injection, schedule: Q01DX001 (ip), vehicle: Klucel (hydroxypropylcellulose) (HPC) 93 % of control | endpoint: mean survival time, dose: 400.0 mg/kg/injection, schedule: Q01DX001 (ip), vehicle: Klucel (hydroxypropylcellulose) (HPC) 102 % of control

CC(C)(C)OC(=O)NN=C1CCC(C(C)(C)C)CC1 (stereo unspecified)
inactive: [1] 93 % of control | [2] 91 % of control | [3] 98 % of control

COC(=O)Nc1ccc(NC(=O)c2cscn2)c(NC(=O)OC)n1
inactive: [12] 98 % of control | [13] 91 % of control

COC(=O)c1ccc(OC(=O)Nc2ccc(N(CCCl)CCCl)cc2)cc1
inactive: endpoint: mean survival time, dose: 50.0 mg/kg/injection, schedule: Q01DX001 (ip), vehicle: Klucel (hydroxypropylcellulose) (HPC) 95 % of control

O=C(O)Cc1ccccc1C(=O)O.[NH-]C1CCCCC1[NH-].[Pt+2]
inactive: endpoint: median survival time, dose: 3.12 mg/kg/injection, schedule: Q04DX003 (ip), vehicle: saline 102 % of control and 108 % of control | endpoint: median survival time, dose: 6.25 mg/kg/injection, schedule: Q04DX003 (ip), vehicle: saline 103 % of control and 108 % of control | endpoint: median survival time, dose: 12.5 mg/kg/injection, schedule: Q04DX003 (ip), vehicle: saline 109 % of control and 110 % of control | endpoint: median survival time, dose: 25.0 mg/kg/injection, schedule: Q04DX003 (ip), vehicle: saline 105 % of control and 109 % of control | endpoint: median survival time, dose: 50.0 mg/kg/injection, schedule: Q04DX003 (ip), vehicle: saline 117 % of control and 112 % of control

Cc1c(O)c2c(c(O)c1Cc1cccc(C#N)c1)C(=O)c1ccccc1C2=O
inactive: [14] 89 % of control | [15] 90 % of control | [4] 90 % of control | [6] 89 % of control

CCOC(=O)c1ccc(NC(=O)Nc2nccs2)cc1
inactive: endpoint: mean survival time, dose: 6.25 mg/kg/injection, schedule: Q01DX009 (ip), vehicle: Klucel (hydroxypropylcellulose) (HPC) 101 % of control | endpoint: mean survival time, dose: 6.25 mg/kg/injection, schedule: Q01DX009 (oral), vehicle: Klucel (hydroxypropylcellulose) (HPC) 101 % of control | [14] 100 % of control | endpoint: mean survival time, dose: 12.5 mg/kg/injection, schedule: Q01DX009 (ip), vehicle: saline with Tween-80 108 % of control | endpoint: mean survival time, dose: 12.5 mg/kg/injection, schedule: Q01DX009 (oral), vehicle: Klucel (hydroxypropylcellulose) (HPC) 100 % of control | endpoint: mean survival time, dose: 12.5 mg/kg/injection, schedule: Q01DX009 (oral), vehicle: saline with Tween-80 103 % of control | [15] 97 % of control | [16] 110 % of control | endpoint: mean survival time, dose: 25.0 mg/kg/injection, schedule: Q01DX009 (oral), vehicle: Klucel (hydroxypropylcellulose) (HPC) 100 % of control | endpoint: mean survival time, dose: 25.0 mg/kg/injection, schedule: Q01DX009 (oral), vehicle: saline with Tween-80 97 % of control | [4] 97 % of control | [17] 114 % of control and 122 % of control | endpoint: mean survival time, dose: 50.0 mg/kg/injection, schedule: Q01DX009 (oral), vehicle: Klucel (hydroxypropylcellulose) (HPC) 105 % of control | endpoint: mean survival time, dose: 50.0 mg/kg/injection, schedule: Q01DX009 (oral), vehicle: saline with Tween-80 100 % of control | [5] 105 % of control | endpoint: mean survival time, dose: 100.0 mg/kg/injection, schedule: Q01DX009 (ip), vehicle: saline with Tween-80 121 % of control and 110 % of control | endpoint: mean survival time, dose: 100.0 mg/kg/injection, schedule: Q01DX009 (oral), vehicle: Klucel (hydroxypropylcellulose) (HPC) 95 % of control | endpoint: mean survival time, dose: 100.0 mg/kg/injection, schedule: Q01DX009 (oral), vehicle: saline with Tween-80 101 % of control | [6] 110 % of control | endpoint: mean survival time, dose: 200.0 mg/kg/injection, schedule: Q01DX009 (ip), vehicle: saline with Tween-80 106 % of control | endpoint: mean survival time, dose: 200.0 mg/kg/injection, schedule: Q01DX009 (oral), vehicle: Klucel (hydroxypropylcellulose) (HPC) 100 % of control | endpoint: mean survival time, dose: 200.0 mg/kg/injection, schedule: Q01DX009 (oral), vehicle: saline with Tween-80 95 % of control | endpoint: mean survival time, dose: 400.0 mg/kg/injection, schedule: Q01DX009 (ip), vehicle: saline with Tween-80 121 % of control | endpoint: mean survival time, dose: 400.0 mg/kg/injection, schedule: Q01DX009 (oral), vehicle: saline with Tween-80 97 % of control

NC(=S)c1ccc(OCCCc2ccccc2)cc1
inactive: [16] 95 % of control | [17] 95 % of control

C/C=C(\C)c1cc(=O)c2c(C)cc3c(c2o1)C(OC)(OC(C)=O)c1c(O)c(C2CC(C)(N(C)C)C(OC(C)=O)C(C)O2)cc(C2CC(N(C)C)C(OC(C)=O)C(C)O2)c1C3=O (stereo unspecified)
inactive: endpoint: mean survival time, dose: 50.0 mg/kg/injection, schedule: Q04DX003 (ip), vehicle: saline with Tween-80 112 % of control | [12] 110 % of control | endpoint: mean survival time, dose: 100.0 mg/kg/injection, schedule: Q04DX003 (ip), vehicle: saline 109 % of control | [13] 97 % of control | endpoint: mean survival time, dose: 200.0 mg/kg/injection, schedule: Q04DX003 (ip), vehicle: saline 91 % of control

O=S(=O)(NN=C(c1ccccc1)c1ccccc1)c1ccccc1
inactive: [14] 96 % of control | [15] 100 % of control | [4] 92 % of control | [5] 94 % of control | [6] 92 % of control | endpoint: mean survival time, dose: 400.0 mg/kg/injection, schedule: Q01DX009 (ip), vehicle: Klucel (hydroxypropylcellulose) (HPC) 92 % of control

S=c1n(Cc2ccccc2)cnc2ncnn12
inactive: endpoint: mean survival time, dose: 100.0 mg/kg/injection, schedule: Q04DX003 (ip), vehicle: Klucel (hydroxypropylcellulose) (HPC) 98 % of control | endpoint: mean survival time, dose: 200.0 mg/kg/injection, schedule: Q04DX003 (ip), vehicle: Klucel (hydroxypropylcellulose) (HPC) 111 % of control

O=[N+]([O-])c1ccccc1NS(=O)(=O)c1ccccc1
inactive: endpoint: mean survival time, dose: 100.0 mg/kg/injection, schedule: Q01DX001 (ip), vehicle: saline with Tween-80 100 % of control | endpoint: mean survival time, dose: 200.0 mg/kg/injection, schedule: Q01DX001 (ip), vehicle: saline with Tween-80 102 % of control | endpoint: mean survival time, dose: 400.0 mg/kg/injection, schedule: Q01DX001 (ip), vehicle: saline with Tween-80 107 % of control

O=C(O)C1SCCCS1
inactive: endpoint: mean survival time, dose: 12.5 mg/kg/injection, schedule: Q04DX002 (ip), vehicle: saline 105 % of control | endpoint: mean survival time, dose: 25.0 mg/kg/injection, schedule: Q04DX002 (ip), vehicle: saline 94 % of control | endpoint: mean survival time, dose: 50.0 mg/kg/injection, schedule: Q04DX002 (ip), vehicle: saline 94 % of control

Brc1c2ccccc2c(Br)c2ccccc12
inactive: endpoint: mean survival time, dose: 100.0 mg/kg/injection, schedule: Q04DX002 (ip), vehicle: Klucel (hydroxypropylcellulose) (HPC) 86 % of control | endpoint: mean survival time, dose: 200.0 mg/kg/injection, schedule: Q04DX002 (ip), vehicle: Klucel (hydroxypropylcellulose) (HPC) 114 % of control | endpoint: mean survival time, dose: 400.0 mg/kg/injection, schedule: Q04DX002 (ip), vehicle: Klucel (hydroxypropylcellulose) (HPC) 86 % of control

CSc1nc(NC2OC(CO)C(O)C(O)C2O)c(C(C)=O)c(=O)n1C (stereo unspecified)
inactive: [7] 98 % of control | [8] 98 % of control | [9] 97 % of control | [10] 100 % of control | [11] 88 % of control
